Here are results for 16 compounds from patent publication US20110034469A1, “Heterocyclic Compound” (TAKEDA PHARMACEUTICAL COMPANY LIMITED, priority 2009, published 2011).

Structures can show the parent of a compound that is named as a salt.

For the first test, the target named is human XIAP_BIR3 domain purified protein (Homo sapiens, UniProt P98170). Kind of test: Human XIAP binding inhibitory activity (HTRF, b-Smac ligand). As to conditions: read-out: XIAP binding inhibitory rate (%) at 3 μM of the test compound. A general note: In TR-FRET formats the signal depends on donor and acceptor labels being close together.
human XIAP_BIR3 domain purified protein, sequence (P98170 252-356 limits assumed): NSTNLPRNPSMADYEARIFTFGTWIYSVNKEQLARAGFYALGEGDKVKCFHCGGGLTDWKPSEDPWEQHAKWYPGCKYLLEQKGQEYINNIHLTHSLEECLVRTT
As to `CN[C@@H](C)C(=O)N[C@@H](CCCNC(=O)OCc1ccccc1)C(=O)N1C[C@H]2CCCN2C[C@H]1C(=O)N[C@@H]1CCCc2ccccc21` [Example 5, benzyl{(4S)-4-[(N-methyl-L-alanyl)amino]-5-oxo-5-[(3S,8aR)-3-((1R)-1,2,3,4-tetrahydronaphthalen-1-ylcarbamoyl)hexahydropyrrolo[1,2-a]pyrazin-2(1H)-yl]pentyl}carbamate dihydrochloride], the inhibition at 3 µM was 99.2%.

Regarding `CN[C@@H](C)C(=O)N[C@@H](CCCCNC(=O)OCc1ccccc1)C(=O)N1C[C@H]2CCCN2C[C@H]1C(=O)N[C@@H]1CCCc2ccccc21` [Example 6, benzyl{(5S)-5-[(N-methyl-L-alanyl)amino]-6-oxo-6-[(3S,8aR)-3-[(1R)-1,2,3,4-tetrahydronaphthalen-1-ylcarbamoyl]hexahydropyrrolo[1,2-a]pyrazin-2(1H)-yl]hexyl}carbamate dihydrochloride], the inhibition at 3 µM was 98.8%.

As for `CCO[C@@H]1C[C@@H]2CN(C(=O)[C@@H](NC(=O)[C@H](C)NC)C3CCCCC3)[C@H](C(=O)N[C@@H]3CCOc4ccccc43)CN2C1` [Example 18, (3S,7R,8aR)-2-{(2S)-2-cyclohexyl-2-[(N-methyl-L-alanyl)amino]acetyl}-N-[(4R)-3,4-dihydro-2H-chromen-4-yl]-7-ethoxyoctahydropyrrolo[1,2-a]pyrazine-3-carboxamide], the inhibition at 3 µM was determined as 99.6%.

`CN[C@@H](C)C(=O)N[C@H](C(=O)N1C[C@H]2CCCN2C[C@H]1C(=O)N[C@@H]1CCOc2cc(F)cc(F)c21)C1CCCCC1` [Example 24, (3S,8aR)-2-{(2S)-2-cyclohexyl-2-[(N-methyl-L-alanyl)amino]acetyl}-N-[(4R)-5,7-difluoro-3,4-dihydro-2H-chromen-4-yl]octahydropyrrolo[1,2-a]pyrazine-3-carboxamide dihydrochloride]: the inhibition at 3 µM came to 97.3%.

Consider `CN[C@@H](C)C(=O)N[C@H](C(=O)N1C[C@H]2CCCN2C[C@H]1C(=O)N[C@H]1c2ccccc2C[C@H]1O)C1CCCCC1` [Example 27, (3S,8aR)-2-{(2S)-2-cyclohexyl-2-[(N-methyl-L-alanyl)amino]acetyl}-N-[(1S,2R)-2-hydroxy-2,3-dihydro-1H-inden-1-yl]octahydropyrrolo[1,2-a]pyrazine-3-carboxamide dihydrochloride], for which the inhibition at 3 µM is 97.2%.

`CN[C@@H](C)C(=O)N[C@H](C(=O)N1C[C@H]2C[C@@](C)(O)CN2C[C@H]1C(=O)N[C@@H]1CCOc2ccccc21)C1CCCCC1` [Example 41, (3S,7R,8aR)-2-{(2S)-2-cyclohexyl-2-[(N-methyl-L-alanyl)amino]acetyl}-N-[(4R)-3,4-dihydro-2H-chromen-4-yl]-7-hydroxy-7-methyloctahydropyrrolo[1,2-a]pyrazine-3-carboxamide dihydrochloride]: the inhibition at 3 µM was determined as 93.5%.

On to `CN[C@@H](C)C(=O)N[C@H](C(=O)N1C[C@H]2CC(F)(F)CN2C[C@H]1C(=O)N[C@@H]1CCOc2ccccc21)C1CCCCC1` [Example 50, (3S,8aR)-2-{(2S)-2-cyclohexyl-2-[(N-methyl-L-alanyl)amino]acetyl}-N-[(4R)-3,4-dihydro-2H-chromen-4-yl]-7,7-difluorooctahydropyrrolo[1,2-a]pyrazine-3-carboxamide dihydrochloride], for which the inhibition at 3 µM came to 97.1%.

For `CN[C@@H](C)C(=O)N[C@H](C(=O)N1C[C@H]2C[C@@H](OCC3CC3)CN2C[C@H]1C(=O)N[C@@H]1CCOc2ccccc21)C1CCCCC1` [Example 82, (3S,7R,8aR)-2-{(2S)-2-cyclohexyl-2-[(N-methyl-L-alanyl)amino]acetyl}-7-(cyclopropylmethoxy)-N-[(4R)-3,4-dihydro-2H-chromen-4-yl]octahydropyrrolo[1,2-a]pyrazine-3-carboxamide], the inhibition at 3 µM stood at 96.6%.

Turning to `CCO[C@@H]1C[C@@H]2CN(C(=O)[C@@H](NC(=O)[C@H](CC)NC)C3CCCCC3)[C@H](C(=O)N[C@@H]3CCOc4ccccc43)CN2C1` [Example 91, (3S,7R,8aR)-2-[(2S)-2-cyclohexyl-2-{[(2S)-2-(methylamino)butanoyl]amino}acetyl]-N-[(4R)-3,4-dihydro-2H-chromen-4-yl]-7-ethoxyoctahydropyrrolo[1,2-a]pyrazine-3-carboxamide], the inhibition at 3 µM amounted to 95.5%.

As to `CN[C@@H](C)C(=O)N[C@@H](CCCCNC(=O)c1ccc(C(=O)NCCCC[C@H](NC(=O)[C@H](C)NC)C(=O)N2C[C@H]3CCCN3C[C@H]2C(=O)N[C@@H]2CCCc3ccccc32)cc1)C(=O)N1C[C@H]2CCCN2C[C@H]1C(=O)N[C@@H]1CCCc2ccccc21` [Example 125, N,N′-bis{(5S)-5-[(N-methyl-L-alanyl)amino]-6-oxo-6-[(3S,8aR)-3-[(1R)-1,2,3,4-tetrahydronaphthalen-1-ylcarbamoyl]hexahydropyrrolo[1,2-a]pyrazin-2(1H)-yl]hexyl}benzene-1,4-dicarboxamide], the inhibition at 3 µM is 98.9%.

As to `CN[C@@H](C)C(=O)N[C@@H](CCCCNC(=O)CCCCCCCCC(=O)NCCCC[C@H](NC(=O)[C@H](C)NC)C(=O)N1C[C@H]2CCCN2C[C@H]1C(=O)N[C@@H]1CCCc2ccccc21)C(=O)N1C[C@H]2CCCN2C[C@H]1C(=O)N[C@@H]1CCCc2ccccc21` [Example 126, N,N′-bis{(5S)-5-[(N-methyl-L-alanyl)amino]-6-oxo-6-[(3S,8aR)-3-[(1R)-1,2,3,4-tetrahydronaphthalen-1-ylcarbamoyl]hexahydropyrrolo[1,2-a]pyrazin-2(1H)-yl]hexyl}decanediamide], the inhibition at 3 µM is 99%.

For the compound `CCO[C@@H]1C[C@@H]2CN(C(=O)[C@@H](NC(=O)[C@H](CC)NC)C3CCC(F)(F)CC3)[C@H](C(=O)N[C@@H]3CCOc4ccccc43)CN2C1` [Example 127, (3S,7R,8aR)-2-[(2S)-2-(4,4-difluorocyclohexyl)-2-{[(2S)-2-(methylamino)butanoyl]amino}acetyl]-N-[(4R)-3,4-dihydro-2H-chromen-4-yl]-7-ethoxyoctahydropyrrolo[1,2-a]pyrazine-3-carboxamide], the inhibition at 3 µM was determined as 98%.

A further test relates to human breast cancer cell MDA-MB-231-Luc. Briefly: In vivo breast cancer cell tumor regression activity. As to conditions: orally 100 mg/kg, twice per day for 14 days; subcutaneous MDA-MB-231-Luc tumor in female nude mouse. The protocol: MDA-MB-231 cells (American Tissue Culture Collection) were suspended in DMEM medium (Invitrogen) containing 10% fetal bovine serum (Cell Culture Bioscience), plated in a 12-well plate at 1×10^5 cells/mL, each well 1 mL, and the cells were cultured. After 24 hr of culture, the medium was removed, 100 μL of OMEM (Invitrogen) containing […] of pGL4 CMV-luc/Neo plasmid and Lipofectamin LTX (Invitrogen) was added to each well for transfection according to the attached instruction manual. After the plasmid DNA introduction is operation for 25 min., the medium was exchanged with DMEM medium, and the cells were further cultured for 72 hr. The introduced cells were suspended in a medium containing […] G418 (Sigma Ltd.) by a trypsin (Invitrogen) treatment, and plated again in a 6-well plate. […] Finally, MDA-MB-231 cells capable of growing in a medium containing […] G418 were treated by a limit dilution method to give a single colony. Luciferin (Promega) was added to MDA-MB-231 cells in each clone, and the chemical luminescence level was measured using ARVO (PerkinElmer) to give MDA-MB-231-Luc.
The human breast cancer cell MDA-MB-231-Luc ([…]) obtained in Experimental Example 5 were suspended in Matrigel solution (BD Bioscience) and transplanted into 6-week-old BALE/c female nude mouse (CLEA Japan, Inc.) by subcutaneous injection. Mice with a tumor engrafted at a size in tumor volume of about 200 mm^3 on day 12-15 post-transplantation were selected and 5 per group were used for the experiment. A 0.5% methylcellulose (Wako Pure Chemical Industries, Ltd.) suspension or 0.1 M PBS solution (NaH2PO4/Na2HPO4, pH 5.8) of the compound was orally administered at a dose of 100 mg/kg, twice per day for 14 days. The tumor diameter was measured on the day of start of the administration and the day of completion of the administration, and the tumor volume was obtained from formula 1.
tumor volume=long diameter×short diameter×short diameter×(½) formula 1
The ratio of the value obtained by subtracting tumor volume on the day of completion of the administration from that on the day of start of the administration to the tumor volume on the day of start of the administration was obtained as a tumor regression rate from the formula 2.
tumor regression rate (%)=(tumor volume on the day of start of administration−tumor volume on the day of completion of administration)/tumor volume on the day of start of administration×100 formula 2
`CCO[C@@H]1C[C@@H]2CN(C(=O)[C@@H](NC(=O)[C@H](C)NC)C3CCCCC3)[C@H](C(=O)N[C@@H]3CCOc4ccccc43)CN2C1` [Example 18, (3S,7R,8aR)-2-{(2S)-2-cyclohexyl-2-[(N-methyl-L-alanyl)amino]acetyl}-N-[(4R)-3,4-dihydro-2H-chromen-4-yl]-7-ethoxyoctahydropyrrolo[1,2-a]pyrazine-3-carboxamide]: the “tumor regression rate (%)” value is given as 78%.

Regarding `CN[C@@H](C)C(=O)N[C@H](C(=O)N1C[C@H]2CCCN2C[C@H]1C(=O)N[C@@H]1CCOc2ccccc21)c1ccccc1.Cl.Cl` [Example 19, (3S,8aR)—N-[(4R)-3,4-dihydro-2H-chromen-4-yl]-2-{(2S)-2-[(N-methyl-L-alanyl)amino]-2-phenylacetyl}octahydropyrrolo[1,2-a]pyrazine-3-carboxamide dihydrochloride], the “tumor regression rate (%)” value was 64%.

Regarding `CCO[C@@H]1C[C@@H]2CN(C(=O)[C@@H](NC(=O)[C@H](C)NC)C3CCC(F)(F)CC3)[C@H](C(=O)N[C@@H]3CCOc4ccccc43)CN2C1` [Example 23, (3S,7R,8aR)-2-{(2S)-2-(4,4-difluorocyclohexyl)-2-[(N-methyl-L-alanyl)amino]acetyl}-N-[(4R)-3,4-dihydro-2H-chromen-4-yl]-7-ethoxyoctahydropyrrolo[1,2-a]pyrazine-3-carboxamide], the “tumor regression rate (%)” value amounted to 74%.

For `CN[C@@H](C)C(=O)N[C@H](C(=O)N1C[C@H]2CCCN2C[C@H]1C(=O)N[C@@H]1CCOc2cc(F)cc(F)c21)C1CCCCC1` [Example 24, (3S,8aR)-2-{(2S)-2-cyclohexyl-2-[(N-methyl-L-alanyl)amino]acetyl}-N-[(4R)-5,7-difluoro-3,4-dihydro-2H-chromen-4-yl]octahydropyrrolo[1,2-a]pyrazine-3-carboxamide dihydrochloride], the “tumor regression rate (%)” value is reported as 55%.

On to `CN[C@@H](C)C(=O)N[C@H](C(=O)N1C[C@H]2CCCN2C[C@H]1C(=O)N[C@H]1c2ccccc2C[C@@H]1O)C1CCCCC1.Cl.Cl` [Example 26, (3S,8aR)-2-{(2S)-2-cyclohexyl-2-[(N-methyl-L-alanyl)amino]acetyl}-N-[(1S,2S)-2-hydroxy-2,3-dihydro-1H-inden-1-yl]octahydropyrrolo[1,2-a]pyrazine-3-carboxamide dihydrochloride], for which the “tumor regression rate (%)” value was 41%.

Consider `CN[C@@H](C)C(=O)N[C@H](C(=O)N1C[C@H]2CCCN2C[C@H]1C(=O)N[C@@H]1CCOc2ccccc21)C1CCC(F)(F)CC1.Cl.Cl` [Example 32, (3S,8aR)-2-{(2S)-2-(4,4-difluorocyclohexyl)-2-[(N-methyl-L-alanyl)amino]acetyl}-N-[(4R)-3,4-dihydro-2H-chromen-4-yl]octahydropyrrolo[1,2-a]pyrazine-3-carboxamide dihydrochloride], for which the “tumor regression rate (%)” value is on record as 61%.
